The subject of assay [1] is NCI-H358 (K-Ras G12C). Nature of the assay: CellTiter-Glo cell viability assay, NCI-H358. Particulars: Homo sapiens, NCI-H358, 120 h, NCI-H358, 5-day treatment; class symbols; read-out: Additional H358 Cell Viability assay data (K-Ras G12C, IC50). The class given is cell-based, human. In short, it runs like this:
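Compounds were dispensed directly onto K-Ras mutant cells and incubated until day 5, then plates were equilibrated to room temperature for about 30 minutes before CellTiter-Glo luminescence. Signals were normalized as (sample/average DMSO)*100 and fitted by four-parameter logistic fit.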
(In general: Cellular ATP, detected with luciferase, serves as a proxy for viable cell number.)

Assay [2] concerns the target KRAS WT (Homo sapiens (Human), UniProt P01116+P62937). Nature of the assay: Ras-Raf (BRAF RBD) disruption / FRET / MOA assay, KRAS WT. The class given is biochemical. Particulars: read-out: IC50* KRAS WT FRET data. A digest of the protocol: (§1)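 A 10-point, 3-fold dilution series topping at 30 μM final was incubated 3 h at 25° C with the Ras/cyclophilin A/BRAF RBD mixture.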

Assay [3] concerns the target K-Ras G13C (Homo sapiens (Human), UniProt P01116+P62937, G13C). Nature of the assay: Ras-Raf (BRAF RBD) disruption / FRET / MOA assay, KRAS G13C. The class given is biochemical. To be noted: KRAS G13C; Ras-Raf disruption/FRET/MOA assay; read-out: IC50* KRAS G13C FRET data. In short, it runs like this:
as §1

For assay [4], the target named is KRAS G13D (Homo sapiens (Human), UniProt P01116+P62937, G13D). Description: Ras-Raf (BRAF RBD) disruption / FRET / MOA assay, KRAS G13D. Format: biochemical. To be noted: read-out: IC50* KRAS G13D FRET data. In short, it runs like this: as §1
Assay [5] addresses KRAS G12V (Homo sapiens (Human), UniProt P01116+P62937, G12V). Description: Ras-Raf (BRAF RBD) disruption / FRET / MOA assay, KRAS G12V. To be noted: read-out: IC50* KRAS G12V FRET data. Format: biochemical. In short, it runs like this:
as §1

In assay [6] the target is K-Ras G12C (Homo sapiens (Human), UniProt P01116+P62937, G12C). Description: Ras-Raf (BRAF RBD) disruption / FRET / MOA assay, KRAS G12C. To be noted: KRAS G12C; Ras-Raf disruption/FRET/MOA assay; read-out: IC50* KRAS G12C FRET data. Format: biochemical. In short, it runs like this:
as §1

For assay [7], the system named is NCI-H358 cells (K-Ras G12C). Description: Potency assay: pERK in NCI-H358 cells. Particulars: Homo sapiens, NCI-H358; H358 KRAS G12C; read-out: pERK EC50. Format: cell-based, human. A digest of the protocol: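 Inhibition of cellular pERK after a 4 h treatment, detected by AlphaLISA or In-Cell Western. IC50 from a four-parameter concentration-response fit.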
In assay [8] the target is KRAS G12D (Homo sapiens (Human), UniProt P01116+P62937, G12D). Description: Ras-Raf (BRAF RBD) disruption / FRET / MOA assay, KRAS G12D. Format: biochemical. To be noted: Ras-Raf disruption/FRET/MOA assay; class symbols; read-out: KRAS G12D FRET data IC50. In short, it runs like this: as §1
For assay [9], the target named is KRAS G12S (Homo sapiens (Human), UniProt P01116+P62937, G12S). Nature of the assay: Ras-Raf (BRAF RBD) disruption / FRET / MOA assay, KRAS G12S. Particulars: Ras-Raf disruption/FRET/MOA assay; class symbols; read-out: KRAS G12S FRET data IC50. The class given is biochemical. A digest of the protocol:
as §1

Assay [10] has as its target NRAS G12C (Homo sapiens (Human), UniProt P01111+P62937, G12C). Nature of the assay: Ras-Raf (BRAF RBD) disruption / FRET / MOA assay, NRAS G12C. Format: biochemical. To be noted: read-out: IC50* NRAS G12C FRET data. In short, it runs like this:
as §1

Results on six compounds are retold here after US11566007B2, “Ras inhibitors” (Revolution Medicines, Inc., priority 2019, dated 2023).

One may read the IC50 as the concentration that inhibits the measured activity by half. For orientation: EC50 means the concentration needed to bring the measured effect to its halfway point.

Sequence of KRAS G13D (P01116-2 other isoform, or with tags, fused parts or gaps G13D): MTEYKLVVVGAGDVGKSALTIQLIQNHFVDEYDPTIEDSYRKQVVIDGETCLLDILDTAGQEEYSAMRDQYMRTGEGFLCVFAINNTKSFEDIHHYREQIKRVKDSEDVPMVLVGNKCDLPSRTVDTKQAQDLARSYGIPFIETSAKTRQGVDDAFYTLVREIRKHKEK
Sequence of KRAS G13D (P62937 whole entry): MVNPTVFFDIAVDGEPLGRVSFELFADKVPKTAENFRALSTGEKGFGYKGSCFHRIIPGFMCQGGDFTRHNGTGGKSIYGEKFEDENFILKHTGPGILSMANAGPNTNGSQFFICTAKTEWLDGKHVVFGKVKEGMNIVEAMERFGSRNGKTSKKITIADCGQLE
Sequence of KRAS G12S (P01116-2 other isoform, or with tags, fused parts or gaps G12S): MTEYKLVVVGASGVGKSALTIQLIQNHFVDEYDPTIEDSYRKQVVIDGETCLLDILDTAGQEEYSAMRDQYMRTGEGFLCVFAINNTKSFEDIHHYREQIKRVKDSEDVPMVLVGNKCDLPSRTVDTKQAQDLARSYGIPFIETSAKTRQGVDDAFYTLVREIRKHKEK
Sequence of KRAS G12S (P62937 whole entry): as the sequence (P62937 whole entry) above
Sequence of KRAS G12D (P01116-2 other isoform, or with tags, fused parts or gaps G12D): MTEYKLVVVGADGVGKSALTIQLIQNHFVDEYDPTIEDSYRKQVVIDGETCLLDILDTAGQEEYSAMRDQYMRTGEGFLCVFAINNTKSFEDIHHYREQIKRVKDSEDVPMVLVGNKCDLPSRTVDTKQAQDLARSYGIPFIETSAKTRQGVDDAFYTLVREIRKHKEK
Sequence of KRAS G12D (P62937 whole entry): as the sequence (P62937 whole entry) above
Sequence of K-Ras G13C (P01116-2 other isoform, or with tags, fused parts or gaps G13C): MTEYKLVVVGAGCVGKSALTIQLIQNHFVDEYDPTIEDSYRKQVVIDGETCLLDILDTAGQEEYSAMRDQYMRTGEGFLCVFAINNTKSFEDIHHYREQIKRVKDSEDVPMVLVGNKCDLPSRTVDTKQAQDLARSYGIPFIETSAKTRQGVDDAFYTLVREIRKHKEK
Sequence of K-Ras G13C (P62937 whole entry): as the sequence (P62937 whole entry) above
Sequence of NRAS G12C (P01111 whole entry G12C): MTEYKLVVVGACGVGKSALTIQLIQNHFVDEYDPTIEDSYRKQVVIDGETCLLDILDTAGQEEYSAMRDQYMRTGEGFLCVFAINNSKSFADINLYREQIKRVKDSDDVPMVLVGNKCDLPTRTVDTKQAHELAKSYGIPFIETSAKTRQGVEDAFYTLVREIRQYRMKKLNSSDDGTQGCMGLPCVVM
Sequence of NRAS G12C (P62937 whole entry): as the sequence (P62937 whole entry) above
Sequence of KRAS WT (P01116-2 other isoform, or with tags, fused parts or gaps): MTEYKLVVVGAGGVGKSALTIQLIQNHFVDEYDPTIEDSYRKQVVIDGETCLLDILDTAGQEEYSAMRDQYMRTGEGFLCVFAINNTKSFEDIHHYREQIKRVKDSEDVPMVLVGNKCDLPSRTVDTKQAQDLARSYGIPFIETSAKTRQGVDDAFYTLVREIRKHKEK
Sequence of KRAS WT (P62937 whole entry): as the sequence (P62937 whole entry) above
Sequence of KRAS G12V (P01116-2 other isoform, or with tags, fused parts or gaps G12V): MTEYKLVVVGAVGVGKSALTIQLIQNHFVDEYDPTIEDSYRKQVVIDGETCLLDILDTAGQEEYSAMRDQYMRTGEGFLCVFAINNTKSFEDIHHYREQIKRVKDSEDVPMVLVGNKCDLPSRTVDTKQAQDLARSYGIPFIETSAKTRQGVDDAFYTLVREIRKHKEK
Sequence of KRAS G12V (P62937 whole entry): as the sequence (P62937 whole entry) above
Sequence of K-Ras G12C (P01116-2 other isoform, or with tags, fused parts or gaps G12C): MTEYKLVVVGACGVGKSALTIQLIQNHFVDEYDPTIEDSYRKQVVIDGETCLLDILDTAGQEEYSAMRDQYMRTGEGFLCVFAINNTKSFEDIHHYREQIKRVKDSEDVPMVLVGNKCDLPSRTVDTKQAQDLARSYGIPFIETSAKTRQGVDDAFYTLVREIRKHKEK
Sequence of K-Ras G12C (P62937 whole entry): as the sequence (P62937 whole entry) above

In the case of `CCn1c(-c2cccnc2[C@H](C)OC)c2c3cc(ccc31)-c1csc(n1)C[C@H](NC(=O)[C@H](C(C)C)N1CCC3(CCN(C(=O)C#CC(C)(C)N(C)C)CC3)C1=O)C(=O)N1CCC[C@H](N1)C(=O)OCC(C)(C)C2` (atropisomer, axis not shown) [Example A322], the IC50 in assay [1] was below 10 nM; in assay [2], above 10000 nM; in [3] it was 100 to 1000 nM; in [4] it was above 10000 nM; in assay [5], above 10000 nM; in [6] it was below 10 nM. Also, the IC50 was above 10000 nM in assay [8], above 10000 nM in assay [9] and 10 to 100 nM in assay [10]. Besides, the EC50 in [7] is below 5000 nM.

On to `CCn1c(-c2cccnc2[C@H](C)OC)c2c3cc(ccc31)-c1nsc(n1)C[C@H](NC(=O)[C@H](C(C)C)N(C)C(=O)[C@H]1CCN(C(=O)C#CCN3CCOCC3)C1)C(=O)N1CCC[C@H](N1)C(=O)OCC(C)(C)C2` (atropisomer, axis not shown) [Example A201], for which the IC50 was 10 to 100 nM in [1]; above 10000 nM in [2]; 1000 to 10000 nM in assay [3]; above 10000 nM in assay [4]; above 10000 nM in [5]; 10 to 100 nM in assay [6]. Also, the IC50 is above 10000 nM in assay [8], above 10000 nM in [9] and 100 to 1000 nM in assay [10]. The EC50 in assay [7] is below 5000 nM.

`CCn1c(-c2cccnc2COC)c2c3cc(ccc31)-c1cc(O)cc(c1)C[C@H](NC(=O)[C@H](C(C)C)N(C)C(=O)[C@H]1CCN(C(=O)C#CCN3CCN(C)CC3)C1)C(=O)N1CCC[C@H](N1)C(=O)OCC(C)(C)C2` [Example A189]: the IC50 in assay [1] is above 1000 nM; in assay [2], 100 to 1000 nM; in [3], 100 to 1000 nM; in assay [4], 100 to 1000 nM; in assay [5] it was 100 to 1000 nM; in assay [6], 10 to 100 nM. For the same compound, the IC50 lay in the range of 100 to 1000 nM in assay [8], 100 to 1000 nM in assay [9] and 10 to 100 nM in [10]. The EC50 in assay [7] was below 5000 nM.

For the compound `C=CC(=O)N1CCC(F)(C(=O)N(C)[C@H](C(=O)N[C@H]2Cc3cccc(c3)-c3ccc4c(c3)c(c(-c3cccnc3[C@H](C)OC)n4CC)CC(C)(C)COC(=O)[C@@H]3CCCN(N3)C2=O)C(C)C)CC1` (atropisomer, axis not shown) [Example A518], the IC50 in assay [1] was below 10 nM; in [2], 100 to 1000 nM; in assay [3] it was 100 to 1000 nM; in [4], 100 to 1000 nM; in assay [5], 100 to 1000 nM; in assay [6], 10 to 100 nM. The results for the IC50 in [8], in [9] and in assay [10] were 1000 to 10000 nM, 100 to 1000 nM and 10 to 100 nM, respectively. Besides, the EC50 in [7] is below 5000 nM.

As for `CCn1c(-c2cccnc2[C@H](C)OC)c2c3cc(ccc31)-c1cc(O)cc(c1)C[C@H](NC(=O)[C@H](C(C)C)N(C)C(=O)[C@H]1CCN(C(=O)C#CCOC)C1)C(=O)N1CCC[C@H](N1)C(=O)OCC(C)(C)C2` [Example A266], the IC50 in assay [1] was below 10 nM; in [2], 100 to 1000 nM; in assay [3], 10 to 100 nM; in assay [4], 100 to 1000 nM; in [5] it was 10 to 100 nM; in [6], below 10 nM. Moreover, the IC50 in assay [8] was 100 to 1000 nM; in assay [9], 10 to 100 nM; in assay [10], below 10 nM. Moreover, the EC50 in [7] is below 5000 nM.

Consider `CCn1c(-c2cccnc2[C@H](C)OC)c2c3cc(ccc31)-c1cc(O)cc(c1)C[C@H](NC(=O)[C@H](C(C)C)N1CC[C@@]3(CCN(C(=O)/C=C/CN(C)C)C3)C1=O)C(=O)N1CCC[C@H](N1)C(=O)OCC(C)(C)C2` (atropisomer, axis not shown) [Example A269], for which the IC50 in assay [1] is 10 to 100 nM; in assay [2], 100 to 1000 nM; in [3], 100 to 1000 nM; in assay [4] it was 100 to 1000 nM; in [5] it was 100 to 1000 nM; in assay [6] it was 10 to 100 nM. The IC50 is 100 to 1000 nM in assay [8], 100 to 1000 nM in [9] and 10 to 100 nM in [10]. The EC50 in assay [7] was below 5000 nM.
